Columns and labels:
[1] = test system: HIV-1 (MN strain) virions; assay: zinc loss from HIV-1 virions; type: biochemical
Procedure: Experiments were performed to determine if NOBA is capable of ejecting zinc from intact virions. HIV-1(MN strain) was produced, purified and concentrated as described in Bess et al., J. Virol. 66:840-847 (1992). The concentrated virus was diluted to 60 times that of culture fluid in TNE buffer (0.01 M Tris-HCl, 0.1M NaCl, 1 mM EDTA, pH 7.2) and incubated with 3000 or 6000 μM NOBA at 37° C. The virus was then pelleted and washed with TNE buffer to remove weakly bound zinc. The quantity of zinc in the resulting viral pellets was determined as described in Bess et al., J. Virol. 66:840-847 (1992).

Zn(HIV1-F1) = Zn(HIV1-F1) (Human immunodeficiency virus type 1 lw12.3 isolate, UniProt Q70622); assay: NMR study of Zn ejection from HIV-1 NC zinc finger peptide; type: biochemical; design: parent Gag (Gag-Pol) polyprotein
Procedure: The * and + symbols denote the aromatic proton signals of the zinc-coordinated and zinc-free His 9 residue. Upon completion of the reaction, reflected by complete ejection of zinc (t=90 min), 50% of the NOBA remained unreacted indicating a 1:1 reaction stoichiometry. NOBA (3-nitrosobenzamide), was synthesized described elsewhere in this application.
To determine if NOBA is capable of ejecting zinc from retroviral-type zinc fingers, NMR studies were performed on a peptide with amino acid sequence corresponding to the N-terminal CCHC zinc finger of the HIV-1 NC protein, Zn(HIV1-F1), South, et al., J. Am. Chem. Soc. 111:395-396 (1989), South, et al., Biochem Pharm. 40:123-129 (1990 ), Summers, et al., Biochemistry 29:329-340 (1990). NMR spectra of Zn(HIV-F1) were performed before and after the addition of NOBA (3-nitrosobenzamide). […] Chem Soc. 111:395-396 (1989), and three-dimensional structural studies have shown that the peptide adopts a structure that is essentially identical to the structure of the corresponding region in the intact NC protein, South, et al., Biochemistry 29:7786-7789 (1990). The down-field region of the ^1 H NMR spectrum showing the signals due to the aromatic proton of His 9 and Phe 2 is illustrated in FIG. 10 (bottom). Addition of two molar equivalents of NOBA results in the loss of the signals due to zinc-bound histidine (denoted by *) and the appearance of broad signals representative of zinc-free histidine (denoted by +). Other signals in the spectrum are due to NOBA protons. […] By comparison, a 10-fold molar excess of EDTA is required to remove zinc from Zn(HIV-1-F1), Summers, et al., J. Cell Biochem 45:41-48 (1991).

[2] = test system: human leukemia cell lines (855-2, H9, HL-60, K562); assay: [3H] thymidine uptake, human leukemia cell lines together; type: cell-based; details: 10 μM; each of the cell lines tested
HIV-1 = assay: inhibition of HIV infection, virus titer in stimulated human lymphoblasts; type: cell-based; details: 10 μM; 30 min exposure, day 10; virus alone 5.25
Procedure: VIII. Anti-HIV action of NOBP, NOBA and NOQ on stimulated human lymphoblasts.
Exposure to the two drugs was only for 30 minutes at the commencement of viral infection, and drugs were never re-added. The results given in Table III provide the ID50 of HIV titer 10 days after infection of cell cultures with HIV.

[3] = test system: normal cells (neutrophil leukocytes and bone marrow or peripheral blood cells); assay: viability / functions of normal cells in presence of compounds
Procedure: Experiments were performed in which the functions of various cancer cells (855-2 and HL-60 leukemia cells, D32, D37 and CRL 7712 glioblastoma cell lines, 186 medulla tumor cell line, L1210 murine leukemia cell line, MDA-468 human breast tumor cell line) and normal cells (neutrophil leukocytes and bone marrow or peripheral blood stream cells) were assessed in the absence or presence of the compounds.

HIV-1 (LAV strain) = assay: HIV-1 inactivation assay in PBL cultures (FIG. 13A, B); type: cell-based; details: NOBA versus NOBP
Procedure: The assay was performed as described in FIG. 13A except that the 30 min. preincubation of virus with NOBA was carried out at 0>, 22° or 37° C.
An HIV-1 stock having an infectivity titer of 100,000 TCID50 was incubated for 30 min. at 22° C. with either of the drugs. Control HIV samples, containing no drugs, were incubated in the same manner. […] At the end of this incubation cultures were assayed for productive infection by an immunoassay for HIV-1 antigens and by reverse transcriptase as described in McDougal, et al., J. Immunol Methods 76:171-183 (1985). Virus titers were expressed as percentile values (percent infected cultures) compared to the controls, containing HIV dilutions which were not preincubated with the C-nitroso drugs. In a separate series of experiments, HIV-1 dilutions and C-nitroso drugs (see upper abscissa) were not preincubated but were added simultaneously to lymphocytes in exactly the same concentrations as described previously (i.e., following preincubation) and viral growth monitored 9 days later. […] Chem. Soc. 111:395-396 (1989), South, et al., Biochem Pharm. 40:123-129 (1990), Summers, et al., Biochemistry 29:329-340 (1990), the inhibition of HIV-1 propagation was profound when C-nitroso drugs were preincubated with HIV-1, whereas only negligible effect on HIV-1 growth occurred when both drugs and virus were added simultaneously. […]

NC(=O)c1cccc(N=O)c1 [NOBA, 3-nitrosobenzamide]
loss of viral proteins in the pellet ([1]; 3000 or 6000 μM, 37° C., p24, gp120 RIA, SDS-PAGE): No significant loss of viral proteins | loss of infectivity ([1]; concentrated HIV-1 (60x)): complete loss of infectivity | losses of viral zinc ([1]; concentrated HIV-1 (60x)): 50-83% | time to complete ejection of zinc (Zn(HIV1-F1); 2 mM NOBA, 1 mM Zn(HIV1-F1), D2O, pH*=6.2, 30° C.): 90 min | NOBA remaining unreacted on completion (Zn(HIV1-F1); 2 mM NOBA, t=90 min): 50% | stoichiometry of reaction (Zn(HIV1-F1); after 90 minutes): reacts stoichiometrically with Zn(HIV1-F1) | zinc-bound His signals (Zn(HIV1-F1); two molar equivalents, after 90 min.): no signals attributable to the zinc-bound His could be detected | inhibition of 3H-thymidine uptake [2]: powerfully inhibited | Virus Titer (log ID50) (HIV-1): 1.05 log ID50 | effect on colony formation by normal cells ([3]; anti-leukemic doses, rhesus bone marrow and human peripheral blood stem cells, FIG. 5): minimal effect on normal cells | effect on viability of normal cells ([3]; tumor cell inhibitory concentrations): not to affect adversely the viability of normal cells | relative depression of HIV-1 propagation (HIV-1 (LAV strain)): greater depression of HIV-1 propagation

From patent publication US5482975A, “Adenosine diphosphoribose polymerase binding nitroso aromatic compounds useful as retroviral inactivating agents, anti-retroviral agents and anti-tumor agents” (priority 1993, dated 1996)
